In patent US7488476B2, “B-cell epitope peptides of HSP 65, DNA encoding said peptides, antibodies directed against said peptides and the different uses thereof in the treatment of inflammatory and autoimmune diseases” (priority 1998, dated 2009):

How the values were obtained:
Lewis rats [1] = assay: Modulation of Adjuvant Arthritis by pre-immunization with HSP peptides; assay type: in vivo, rat; settings: 3 IP injections at one week intervals before AA induction with MT, FIG. 4
DBA/1 mice = assay: Modulation of collagen arthritis in DBA/1 mice; assay type: in vivo, mouse; settings: active vaccination
Lewis rats [2] = assay: Anti HSP antibodies in Lewis rats immunized with HSP peptides (ELISA); assay type: in vivo, rat; settings: 100 μg peptide in PBS, 3 times IP
Method: ELISA: Flat-bottomed 96 well plates (Corning) were coated with mammalian HSP 60 or Mycobacterial HSP 65 (10 μg/ml) in carbonate buffer pH 9.6 overnight at 4° C.
HSP peptides were attached to plates pre-treated with glutaraldehyde according to Kasprzyk et al.. Shortly, plates were coated with 100 μl/well of 5% w/v of glutaraldehyde in PBS for 1 hour at room temp. Plates were washed thoroughly with PBS and peptides (1 μg/100 μl) were added to each well, incubated overnight at 4° C. Plates were shaken dry and blocked with BSA 1% in PBS.
Plates coated with either HSP or peptides were washed again and incubated with rat sera diluted 1:100 with PBS-Tween 0.01% for 90 min. at room temp. After re-washing the plates were incubated with Goat anti rat IgG or IgM conjugated to alkaline-phosphatase for 60 min. at room temp. […] Optical density was measured photometrically at 405 nm.
Modulation of AA by mycobacterial and mammalian HSP peltides: HSP 65 derived peptides were tested for their ability to modulate the appearance or severity of AA in Lewis rats. Rats were immunized with 100 μg of each peptide in PBS, three weeks (3W), 2W and 1W before induction of AA by MT. Control rats received PBS. Rats were bled for testing antibody presence before injection of MT and 30 days post MT injection.
To test whether active immunization with bacterial or mammalian HSP peptides that are recognized by protective immunoglobulins can induce protection against AA, Lewis rats were immunized with the mycobacterial peptides 6, 7, 21, 31, 36, 45, 84, that bound antibodies from resistant Lewis rats (“protective” peptides), with some non-reactive mycobacterial HSP 65 peptides: peptide 26 (residues 151-166), 28 (residues 163-178) or peptide 70 (residues 415-430), and with the mammalian peptide 5.
Rats were injected 3 times intraperitoneally (IP), with one week intervals between injections before induction of AA with MT.

rat immunoglobulins = assay: ELISA: antibodies of rat sera to Mycobacterial HSP 65 and its peptides; assay type: binding
NOD mice = assay: Peptide 6 immunization of NOD mice: onset of diabetes and antibodies by ELISA; assay type: in vivo, mouse
Method: Naive NOD mice were immunized 3 times intradermally (I.D.) with 100 μg peptide 6 (SEQ ID: No. 2) in CFA and IFA. Control mice received PBS. Mice were monitored for the onset of diabetes by glucose test and for anti-peptide 6 or anti-HSP 65 antibodies by ELISA. Mice immunized with the peptide developed anti-peptide 6 as well as anti-HSP 65 antibodies as detected by OD (1.52±0.07 and 1.43±0.13 respectively) in comparison to CFA immunized mice (0.05±0.01 and 0.01±0.01) and control mice (0.09±0.06 and 0.16±0.16).
To test whether active immunization with the bacterial HSP peptide 6 (SEQ ID: No. 2) can induce protective immunoglobulins against other autoimmune disorders, for instance autoimmune diabetes, NOD mice were immunized with the mycobacterial peptide 6 (“protective” peptide). Naive NOD mice were immunized 3 times I.D. with either 100 μg peptide 6 in CFA and IFA or PBS (control). Mice were monitored for the onset of diabetes by glucose test (appearance of hyperglycemia) and for anti-peptide 6 or […] antibodies by ELISA. Mice immunized with the peptide developed anti-peptide 6 as well as anti-HSP 65 antibodies as reflected by OD (1.52±0.07 and 1.43±0.13 respectively) in comparison to CFA immunized mice (0.05±0.Oland 0.01±0.01) and control mice (0.09±0.06 and 0.16±0.16).

[3] = NOD mice immunized 3 times I.D. with 100 μg peptide 6 in CFA and IFA, ELISA

GPKGRNVVLEKKWGAP [Peptide 6]
AA disease severity after pre-immunization (Lewis rats [1]): significant suppression of disease severity
murine collagen arthritis (DBA/1 mice): suppressed significantly
Anti HSP Antibodies in Immunized Lewis Rats, Antigen M5 (Lewis rats [2]; antigen M5): − (<O. 15 = −)
Anti HSP Antibodies in Immunized Lewis Rats, Antigen MT-HSP 65 (Lewis rats [2]; antigen MT-HSP 65): ++ (0.46-0.75 = ++)
Anti HSP Antibodies in Immunized Lewis Rats, Antigen 6 (Lewis rats [2]; antigen peptide 6): ++ (0.46-0.75 = ++)
Anti HSP Antibodies in Immunized Lewis Rats, Antigen 7 (Lewis rats [2]; antigen peptide 7): − (<O. 15 = −)
Antibodies to Mycobacterial HSP 65 Peptides (rat immunoglobulins; strain BN-6w): + (0.16-0.45 = +)
Antibodies to Mycobacterial HSP 65 Peptides (rat immunoglobulins; strain Lew-4m): + (0.16-0.45 = +)
Antibodies to Mycobacterial HSP 65 Peptides (rat immunoglobulins; strain Lew-6w): − (<O. 15 = −)
Antibodies to Mycobacterial HSP 65 Peptides (rat immunoglobulins; strain Lew-9m): + (0.16-0.45 = +)
Antibodies to Mycobacterial HSP 65 Peptides (rat immunoglobulins; strain Lew-Post AA): +++ (>0.75 = +++)
anti-HSP 65 antibodies (NOD mice; [3]): 1.43±0.13 OD
anti-peptide 6 antibodies (NOD mice; [3]): 1.52±0.07 OD
appearance of the diabetic symptoms (NOD mice; NOD mice, glucose test, FIG. 7): clearly delayed
number of sick mice (NOD mice; NOD mice, peptide-6 vaccinated group): significantly lowered
diabetes disease severity (NOD mice; NOD mice, FIG. 7): significantly reduced
